Target: human HSV DNA polymerase UL30 (Human herpesvirus 1 (strain 17) (HHV-1) (Human herpes simplex virus 1), UniProt P04293)
Assay: biochemical
Conditions: 625 pM HSV polymerase, 20 minutes at room temperature; read-out: HSV-polymerase Biochemical IC50

In order of falling IC50:
1. Cn1nc(C(=O)NCc2ccc(Cl)cc2)c2c1C(=O)N(CC1(S(N)(=O)=O)CC1)CC2 [Example 121, N-(4-Chlorobenzyl)-1-methyl-7-oxo-6-((1-sulfamoylcyclopropyl)methyl)-4,5,6,7-tetrahydro-1H-pyrazolo[3,4-c]pyridine-3-carboxamide]  671 nM
2. Cn1nc(C(=O)NCc2ccc(C#N)cc2)c2c1C(=O)N(CC1(S(=O)(=O)CC(C)(C)O)CC1)CC2 [Example 118, N-(4-Cyanobenzyl)-6-((1-((2-hydroxy-2-methylpropyl)sulfonyl)cyclopropyl)methyl)-1-methyl-7-oxo-4,5,6,7-tetrahydro-1H-pyrazolo[3,4-c]pyridine-3-carboxamide]  412 nM
3. CN(C)/C=N/S(=O)(=O)C1(CN2CCc3c(C(=O)NCc4ccc(Cl)cc4)nn(C)c3C2=O)CC1 [Example 122, (E)-N-(4-Chlorobenzyl)-6-((1-(N-((dimethylamino)methylene)sulfamoyl)cyclopropyl)methyl)-1-methyl-7-oxo-4,5,6,7-tetrahydro-1H-pyrazolo[3,4-c]pyridine-3-carboxamide]  324 nM
4. CN(C)CC(=O)NCC(C)(C)S(=O)(=O)C1(CN2CCc3c(C(=O)NCc4ccc(C#N)cc4)nn(C)c3C2=O)CC1 [Example 78, N-(4-Cyanobenzyl)-6-((1-((1-(2-(dimethylamino)acetamido)-2-methylpropan-2-yl)sulfonyl)cyclopropyl)methyl)-1-methyl-7-oxo-4,5,6,7-tetrahydro-1H-pyrazolo[3,4-c]pyridine-3-carboxamide]  206 nM
5. CNC(=O)C(C)(C)S(=O)(=O)C1(CN2CCc3c(C(=O)NCc4ccc(Cl)cc4)nn(C)c3C2=O)CC1 [Example 110, N-(4-Chlorobenzyl)-1-methyl-6-((1-((2-methyl-1-(methylamino)-1-oxopropan-2-yl)sulfonyl)cyclopropyl)methyl)-7-oxo-4,5,6,7-tetrahydro-1H-pyrazolo[3,4-c]pyridine-3-carboxamide]  166 nM
6. Cn1nc(C(=O)NCc2ccc(C#N)cc2)c2c1C(=O)N(CC1(S(=O)(=O)C(C)(C)COCC(C)(C)O)CC1)CC2 [Example 86, N-(4-Cyanobenzyl)-6-((1-((1-(2-hydroxy-2-methylpropoxy)-2-methylpropan-2-yl)sulfonyl)cyclopropyl)methyl)-1-methyl-7-oxo-4,5,6,7-tetrahydro-1H-pyrazolo[3,4-c]pyridine-3-carboxamide]  159 nM
7. Cn1nc(C(=O)NCc2ccc(C#N)cc2)c2c1C(=O)N(CC1(S(=O)(=O)C(C)(C)CNC(=O)C(C)(C)N)CC1)CC2 [Example 77, 6-((1-((1-(2-Amino-2-methylpropanamido)-2-methylpropan-2-yl)sulfonyl)cyclopropyl)methyl)-N-(4-cyanobenzyl)-1-methyl-7-oxo-4,5,6,7-tetrahydro-1H-pyrazolo[3,4-c]pyridine-3-carboxamide]  142 nM
8. Cn1nc(C(=O)NCc2ccc(C#N)cc2)c2c1C(=O)N(CC1(S(=O)(=O)N3CCC(O)CC3)CC1)CC2 [Example 125, N-(4-Cyanobenzyl)-6-((1-((4-hydroxypiperidin-1-yl)sulfonyl)cyclopropyl)methyl)-1-methyl-7-oxo-4,5,6,7-tetrahydro-1H-pyrazolo[3,4-c]pyridine-3-carboxamide]  136 nM
9. C[C@@H](N)C(=O)NCC(C)(C)S(=O)(=O)C1(CN2CCc3c(C(=O)NCc4ccc(C#N)cc4)nn(C)c3C2=O)CC1 [Example 75, (R)-6-((1-((1-(2-Aminopropanamido)-2-methylpropan-2-yl)sulfonyl)cyclopropyl)methyl)-N-(4-cyanobenzyl)-1-methyl-7-oxo-4,5,6,7-tetrahydro-1H-pyrazolo[3,4-c]pyridine-3-carboxamide]  133 nM
10. C[C@H](N)C(=O)NCC(C)(C)S(=O)(=O)C1(CN2CCc3c(C(=O)NCc4ccc(C#N)cc4)nn(C)c3C2=O)CC1 [Example 76, (S)-6-((1-((1-(2-Aminopropanamido)-2-methylpropan-2-yl)sulfonyl)cyclopropyl)methyl)-N-(4-cyanobenzyl)-1-methyl-7-oxo-4,5,6,7-tetrahydro-1H-pyrazolo[3,4-c]pyridine-3-carboxamide]  123 nM
11. Cn1nc(C(=O)NCc2ccc(C#N)cc2)c2c1C(=O)N(CC1(S(=O)(=O)N3CCOCC3)CC1)CC2 [Example 124, N-(4-Cyanobenzyl)-1-methyl-6-((1-(morpholinosulfonyl)cyclopropyl)methyl)-7-oxo-4,5,6,7-tetrahydro-1H-pyrazolo[3,4-c]pyridine-3-carboxamide]  121 nM
12. Cn1nc(C(=O)NCc2ccc(C#N)cc2)c2c1C(=O)N(CC1(S(=O)(=O)C(C)(C)COCC(C)(C)N)CC1)CC2 [Example 103, 6-((1-((1-(2-Amino-2-methylpropoxy)-2-methylpropan-2-yl)sulfonyl)cyclopropyl)methyl)-N-(4-cyanobenzyl)-1-methyl-7-oxo-4,5,6,7-tetrahydro-1H-pyrazolo[3,4-c]pyridine-3-carboxamide]  117 nM
13. CN(C)CCOCC(C)(C)S(=O)(=O)C1(CN2CCc3c(C(=O)NCc4ccc(C#N)cc4)nn(C)c3C2=O)CC1 [Example 104, N-(4-Cyanobenzyl)-6-((1-((1-(2-(dimethylamino)ethoxy)-2-methylpropan-2-yl)sulfonyl)cyclopropyl)methyl)-1-methyl-7-oxo-4,5,6,7-tetrahydro-1H-pyrazolo[3,4-c]pyridine-3-carboxamide]  108 nM
14. Cn1nc(C(=O)NCc2ccc(C#N)cc2)c2c1C(=O)N(CC1(S(=O)(=O)N3CC[C@@H](O)C3)CC1)CC2 [Example 126, (R)-N-(4-Cyanobenzyl)-6-((1-((3-hydroxypyrrolidin-1-yl)sulfonyl)cyclopropyl)methyl)-1-methyl-7-oxo-4,5,6,7-tetrahydro-1H-pyrazolo[3,4-c]pyridine-3-carboxamide]  84 nM
15. Cn1nc(C(=O)NCc2ccc(C#N)cc2)c2c1C(=O)N(CC1(S(=O)(=O)N3CC[C@H](O)C3)CC1)CC2 [Example 127, (S)-N-(4-Cyanobenzyl)-6-((1-((3-hydroxypyrrolidin-1-yl)sulfonyl)cyclopropyl)methyl)-1-methyl-7-oxo-4,5,6,7-tetrahydro-1H-pyrazolo[3,4-c]pyridine-3-carboxamide]  67 nM
16. Cn1nc(C(=O)NCc2ccc(C#N)cc2)c2c1C(=O)N(CC1(S(=O)(=O)C(C)(C)CNC(=O)CN)CC1)CC2 [Example 74, 6-((1-((1-(2-Aminoacetamido)-2-methylpropan-2-yl)sulfonyl)cyclopropyl)methyl)-N-(4-cyanobenzyl)-1-methyl-7-oxo-4,5,6,7-tetrahydro-1H-pyrazolo[3,4-c]pyridine-3-carboxamide]  65 nM
17. Cn1nc(C(=O)NCc2ccc(C#N)cc2)c2c1C(=O)N(CC1(S(=O)(=O)C3(CCO)CC3)CC1)CC2 [Example 117, N-(4-Cyanobenzyl)-6-((1-((1-(2-hydroxyethyl)cyclopropyl)sulfonyl)cyclopropyl)methyl)-1-methyl-7-oxo-4,5,6,7-tetrahydro-1H-pyrazolo[3,4-c]pyridine-3-carboxamide]  59 nM
18. Cn1nc(C(=O)NCc2ccc(C#N)cc2)c2c1C(=O)N(CC1(S(=O)(=O)C(C)(C)COC(F)(F)CN)CC1)CC2 [Example 85, 6-((1-((1-(2-Amino-1,1-difluoroethoxy)-2-methylpropan-2-yl)sulfonyl)cyclopropyl)methyl)-N-(4-cyanobenzyl)-1-methyl-7-oxo-4,5,6,7-tetrahydro-1H-pyrazolo[3,4-c]pyridine-3-carboxamide]  49 nM
19. Cn1nc(C(=O)NCc2ccc(C#N)cc2)c2c1C(=O)N(CC1(S(=O)(=O)C(C)(C)COC(F)(F)CO)CC1)CC2 [Example 84, N-(4-Cyanobenzyl)-6-((1-((1-(1,1-difluoro-2-hydroxyethoxy)-2-methylpropan-2-yl)sulfonyl)cyclopropyl)methyl)-1-methyl-7-oxo-4,5,6,7-tetrahydro-1H-pyrazolo[3,4-c]pyridine-3-carboxamide]  45 nM
20. Cn1nc(C(=O)NCc2ccc(C#N)cc2)c2c1C(=O)N(CC1(S(=O)(=O)C(C)(C)COC3CNC3)CC1)CC2 [Example 102, 6-((1-((1-(Azetidin-3-yloxy)-2-methylpropan-2-yl)sulfonyl)cyclopropyl)methyl)-N-(4-cyanobenzyl)-1-methyl-7-oxo-4,5,6,7-tetrahydro-1H-pyrazolo[3,4-c]pyridine-3-carboxamide]  42 nM
21. COC(=O)NCC(C)(C)S(=O)(=O)C1(CN2CCc3c(C(=O)NCc4ccc(C#N)cc4)nn(C)c3C2=O)CC1 [Example 73, Methyl (2-((1-((3-((4-cyanobenzyl)carbamoyl)-1-methyl-7-oxo-1,4,5,7-tetrahydro-6H-pyrazolo[3,4-c]pyridin-6-yl)methyl)cyclopropyl)sulfonyl)-2-methylpropyl)carbamate]  40 nM
22. Cn1nc(C(=O)NCc2ccc(Cl)cc2)c2c1C(=O)N(CC1(S(=O)(=O)C(C)(C)COCCO)CC1)CC2 [Example 88, N-(4-Chlorobenzyl)-6-((1-((1-(2-hydroxyethoxy)-2-methylpropan-2-yl)sulfonyl)cyclopropyl)methyl)-1-methyl-7-oxo-4,5,6,7-tetrahydro-1H-pyrazolo[3,4-c]pyridine-3-carboxamide]  39 nM
23. Cn1nc(C(=O)NCc2ccc(C#N)cc2)c2c1C(=O)N(CC1(S(=O)(=O)C(C)(C)CN)CC1)CC2 [Example 70, 6-((1-((1-Amino-2-methylpropan-2-yl)sulfonyl)cyclopropyl)methyl)-N-(4-cyanobenzyl)-1-methyl-7-oxo-4,5,6,7-tetrahydro-1H-pyrazolo[3,4-c]pyridine-3-carboxamide]  37 nM
24. CNCCOCC(C)(C)S(=O)(=O)C1(CN2CCc3c(C(=O)NCc4ccc(C#N)cc4)nn(C)c3C2=O)CC1 [Example 101, N-(4-Cyanobenzyl)-1-methyl-6-((1-((2-methyl-1-(2-(methylamino)ethoxy)propan-2-yl)sulfonyl)cyclopropyl)methyl)-7-oxo-4,5,6,7-tetrahydro-1H-pyrazolo[3,4-c]pyridine-3-carboxamide]  32 nM
25. Cn1nc(C(=O)NCc2ccc(C#N)cc2)c2c1C(=O)N(CC1(S(=O)(=O)C3(COCCN)CC3)CC1)CC2 [Example 96, 6-((1-((1-((2-aminoethoxy)methyl)cyclopropyl)sulfonyl)cyclopropyl)methyl)-N-(4-cyanobenzyl)-1-methyl-7-oxo-4,5,6,7-tetrahydro-1H-pyrazolo[3,4-c]pyridine-3-carboxamide]  20 nM
